The subject of series [1] is lipofuscin in RPE cells of ABCA4−/− mice. Kind of series: Quantification and ultrastructural (TEM) analysis of lipofuscin in RPE after single intravitreal injection in ABCA4−/− mice (Stargardt's disease model). It is filed as in vivo, mouse. The note with it: single intravitreal injection 0.32 mg. How it is done: Pigmented ABCA4^−/− mice (129S4/SvJae-ABCA4^tm1Ght) were provided by Gabriel Travis (David Geffen School of Medicine, University of California, Los Angeles, Calif.) and bred in the Biomedical Sciences division, University of Oxford. All experiments were conducted in female mice. The animals were kept in a 12 hour light (<100 lux)/dark cycle, with food and water available ad libitum. All animal breeding and experimental procedures were performed under approval of local and national ethical and legal authorities, and were conducted in compliance with the ARVO statement for the Use of Animals in Ophthalmic and Vision Research.
(§1) Two μl PBS containing a total amount of 0.32 mg Soraprazan in suspension were injected into the vitreous of three 12 months old ABCA4^−/− mice.
(§2) The eyes were enucleated after four weeks. Two untreated aged matched ABCA4^−/− mice served as controls. After enucleation, the eyes were cleaned of orbital tissue and, after removal of the cornea, were fixed overnight at 4° C. in 2% glutaraldehyde in 0.1 M cacodylate buffer (pH 7.4) containing 100 mM sucrose. After washing with cacodylate buffer, areas of interest in flat mount preparations were excised and post-fixed with 1% osmium tetroxide in 0.1 M cacodylate buffer at room temperature for 1 h. In some parts of the eyes osmication was omitted which preserved the autofluorescence of lipofuscin. Dehydration was then started by a series of incubations in 30, 50, and 70% ethanol. The samples were stained with saturated uranyl acetate. Dehydration was continued by incubations in 70, 80, 95, 100% ethanol and propylene oxide. The samples were then embedded in Epon (SPI-Pon™812 Epoxy Embedding Kit, SPI supplies, West Chester, Pa.). For light and fluorescence microscopy, staining with osmium and uranylacetate was omitted.
Ultrathin Epon sections (70 nm) from WT control eyes and ABCA4^−/− eyes were post-stained with lead citrate and investigated under a transmission electron microscope (TEM; Model 902 A, Carl Zeiss, Oberkochen, Germany). For statistical analysis, the areas occupied by lipofuscin granules were quantified in 8-10 micrographs from each group. […] For lipofuscin quantification, image analysis software (iTEM, Olympus Soft imaging Solutions, Munster, Germany) was used. For each image, the total area of RPE cytoplasm was determined. […] The area fraction of lipofuscin/melanolipofuscin is expressed as area in μm^2 occupied by lipofuscin per 100 μm^2 RPE cytoplasm.
Statistical significance for the ultrastructural evaluation of lipofuscin granules was determined by using Dunnett's test and the JMP9 statistical program (SAS; Heidelberg, Germany). […]

The test system is the same in series [2]. The experiment in a line: Fluorescence microscopy of autofluorescent lipofuscin granules in RPE semithin sections of ABCA4−/− mice. The conditions noted are these: 12-month-old ABCA4−/− mice, 4 weeks after single intravitreal injection of 0.32 mg, qualitative. It is filed as in vivo, mouse. How it is done: as §1
as §2, with “The samples were stained with saturated uranyl acetate. Dehydration was continued by incubations in 70, 80, 95, 100% ethanol and propylene oxide. The samples were then embedded in Epon (SPI-Pon™812 Epoxy Embedding Kit, SPI supplies, West Chester, Pa.).” left out
Autofluorescent lipofuscin and melanolipofuscin granules were photographed in semi thin sections using a fluorescence microscope (Zeiss Axioplan2 imaging, excitation 370/36 nm, emission 575/15 nm, 40× objective) connected to a personal computer equipped with a CDD camera. Since the granules could not clearly be separated from each other and lipofuscin cannot be differentiated from melanolipofuscin, the quantification of lipofuscin granules was performed using electron microscopy.

A further series deals with Cynomolgus monkey. Kind of series: 52-week oral administration in the Cynomolgus monkey, conventional histopathology of the eye. It is filed as in vivo. How it is done: Soraprazan was administrated in oral application of 6, 12 and 24 mg/kg/day for 52 weeks in the Cynomolgus monkey.
Some monkeys from the control and the high-dose group were subjected to a recovery period of 3 months.

Another series deals with RPE cells. The conditions noted are these: known from the literature; cited from earlier work.

Several values for one entry are separate records, joined by “and”; a condition that tells them apart may be missing. Identical values can stand only once.

The values below come from patent publication US20160235724A1, “TETRAHYDROPYRIDOETHERS FOR THE TREATMENT OF STARGARDT'S DISEASE” (KATAIRO GMBH, priority 2013, published 2016).

Usually melting point stands for the temperature, or range, at which the solid turns liquid. The compound `CO[C@H]1c2ccn3c(C)c(C)nc3c2N[C@@H](c2ccccc2)[C@@H]1O` [Example 1B, (7S,8S,9S)-2,3-Dimethyl-8-hydroxy-7-methoxy-9-phenyl-7,8,9,10-tetrahydro-imidazo [1,2-h][1,7] naphthyridine] returned a melting point of 161 to 162 °C.

As to `CO[C@H]1c2ccn3c(C)c(C)nc3c2N[C@H](c2ccccc2)[C@H]1O` [Example 2A, (7S,8R,9R)-2,3-Dimethyl-8-hydroxy-7-methoxy-9-phenyl-7,8,9,10-tetrahydro-imidazo [1,2-h][1,7]naphthyridine], the melting point fell in the range of 108 to 110 °C.

`CO[C@@H]1c2ccn3c(C)c(C)nc3c2N[C@@H](c2ccccc2)[C@@H]1O` [Example 2B, (7R,8S,9S)-2,3-Dimethyl-8-hydroxy-7-methoxy-9-phenyl-7,8,9,10-tetrahydro-imidazo[1,2-h][1,7]naphthyridine] displayed a melting point of 171 to 172 °C.

Regarding `CCO[C@@H]1c2ccn3c(C)c(C)nc3c2N[C@H](c2ccccc2)[C@H]1O` [Example 3, (7R,8R,9R)-2,3-Dimethyl-7-ethoxy-8-hydroxy-9-phenyl-7,8,9,10-tetrahydro-imidazo [1,2-h][1,7]naphthyridine], the melting point was 188 to 190 °C.

Compound `CCO[C@H]1c2ccn3c(C)c(C)nc3c2N[C@H](c2ccccc2)[C@H]1O` [Example 4, (7S,8R,9R)-2,3-Dimethyl-7-ethoxy-8-hydroxy-9-phenyl-7,8,9,10-tetrahydro-imidazo [1,2-h][1,7]naphthyridine] came in with a melting point of 135 to 137 °C.

For `Cc1nc2c3c(ccn2c1C)[C@H](OC(C)C)[C@H](O)[C@@H](c1ccccc1)N3` [Example 7, (7S,8R,9R)-2,3-Dimethyl-8-hydroxy-9-phenyl-7-(2-propoxy)-7,8,9,10-tetrahydro-imidazo [1,2-h][1,7]naphthyridine], the melting point lay in the range of 168 to 169 °C.

Regarding `CO[C@@H]1[C@@H](c2ccccc2)Nc2c(ccn3c(C)c(C)nc23)[C@H]1OC` [Example 8, (7R,8R,9R)-2,3-Dimethyl-7,8-dimethoxy-9-phenyl-7,8,9,10-tetrahydro-imidazo[1,2-h][1,7]naphthyridine], the melting point is 155 to 156 °C.

With `COCCO[C@@H]1c2ccn3c(C)c(C)nc3c2N[C@H](c2ccccc2)[C@H]1O` [Soraprazan, (7R,8R,9R)-2,3-Dimethyl-8-hydroxy-7-(2-methoxyethoxy)-9-phenyl-7,8,9,10-tetrahydro-imidazo [1,2-h][1,7]naphthyridine], the “percent area occupied by lipofuscin in RPE cell cytoplasm (median)” value in series [1] (12-month-old ABCA4−/− mice, eyes enucleated after four weeks, untreated median 12.92%, p<0.0001, Dunnett's test) was 6.42%. For the same compound, the “electron-opaque lipofuscin granules in RPE (TEM) compared to controls” value in series [1] (12-month-old ABCA4−/− mice, four weeks) is given as “significantly reduced in number”. In series [1] (ABCA4−/− mice), the “appearance of retinas of treated animals” value is given as “removing lipofuscin. Retinas of treated animals made a healthy”. In series [1] (ABCA4−/− mice, 44 retinal areas, p < 0.0001), the “lipofuscin content of RPE cells after treatment (study overview result)” value was “significantly reduced and 1. Lipofuscin is removed from ABCA4^−/− mouse RPE cells after”. In addition, the “lipofuscin in RPE under fluorescent light compared to untreated mice” value in series [2] was “lipofuscin was reduced”. In addition, the conventional histopathology findings result with Cynomolgus monkey (oral 6 mg/kg/day for 52 weeks) and in the series on Cynomolgus monkey (oral 12 mg/kg/day for 52 weeks) was “no alterations” throughout. The “monkeys showing migration of individual macrophages beneath the RPE and/or into the subretinal space” value in the series with Cynomolgus monkey (oral 24 mg/kg/day for 52 weeks) was “Three out of 12”. For the same compound, the “photoreceptors facing the depigmented RPE” value in the series on Cynomolgus monkey (oral 24 mg/kg/day for 52 weeks) is listed as “stayed healthy”. Besides, the “monkeys with depigmentation of RPE cells” value in the series on Cynomolgus monkey (oral 24 mg/kg/day for 52 weeks, among the 3 monkeys with macrophage migration) is on record as “Two of these 3”. Further, in the series on RPE cells, the “removal of "natural" lipofuscin from RPE cells” value is “remove such lipofuscin from RPE cells”.
